Assay results: patent publication US20110065675A1, “AZO DYE RELATED SMALL MOLECULE MODULATORS OF PROTEIN-PROTEIN INTERACTIONS” (University of Miami, priority 2008, published 2011)
pIC50: −log10 of the molar value. Like-named read-outs stand apart in the source and are kept apart here.

Legend:
[1] = biological target: T1, human CD40/CD154 (Homo sapiens, UniProt P29965); experiment: Human CD40/CD154 binding inhibition assay (cell-free, plate-based); details: for pIC50: read-out: Human CD40/CD154 IC50
T1 construct: CD154 (soluble human, FLAG-tagged, recombinant from Alexis Biochemicals; MW=18 kDa); purchased Alexis Biochemicals
T1 sequence (P29965 113-261 limits assumed): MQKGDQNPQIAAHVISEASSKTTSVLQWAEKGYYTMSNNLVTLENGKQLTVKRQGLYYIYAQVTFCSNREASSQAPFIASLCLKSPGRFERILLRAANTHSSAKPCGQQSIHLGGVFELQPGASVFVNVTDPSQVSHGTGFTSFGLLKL
Method: A 96-well plate-based cell-free in vitro binding inhibition assay, which is a modification of an assay described in U.S. Pat. No. 7,173,046, incorporated by reference in its entirety, has been developed and used for activity screening. Briefly, CD40 is coated at a preselected concentration, and binding of (FLAG-tagged) CD154 is measured by reacting with secondary antibody and using TMB liquid substrate system as a substrate for horseradish peroxidase for reading at 450 nm. The detailed procedure is as follows: Microtiter plates (Nunc F MaxiSorp) were coated with […] of CD40: Fc (human:Fc human, recombinant from Alexis Biochemicals; MW=54 kDa) diluted in PBS pH 7.2 at a preselected concentration of 0.3125 μg/mL. Plates were covered with plate sealer and stored overnight at 4° C. The liquid was removed from the plates and blotted dry. Plates were blocked by washing once with approx. 300 μL/well of Blocking Solution (PBS pH 7.2, 0.05% Tween-20, 1% BSA) and incubated with the same solution for 1 hour at room temperature (RT) or at 4° C. overnight. Coated plates were washed three times with Washing Solution (PBS pH 7.4, 0.05% Tween-20) and blotted dry. A preselected dilution of CD154 (soluble human, FLAG-tagged, recombinant from Alexis Biochemicals; MW=18 kDa) of 0.0087500875 μg/mL range was prepared in 100 mM HEPES, 0.005% BSA pH 7.2. Binding was carried out by adding 100 μL of this CD154 dilution/well and incubating at RT in the presence of test compounds (or blank as negative control). After incubation, the plates were washed with Washing Solution and blotted dry. Bound CD154 was detected with 200 μL/well of secondary antibody mAb ANTI-FLAG M2—Peroxidase Conjugate (anti-FLAG M2-peroxidase HRP conjugate; Sigma-Aldrich) diluted 1:40,000 in Washing Solution. After incubation, the plates were washed and blotted dry. 200 μL/well of the HR-Peroxidase substrate TMB (3,3′,5,5′-tetramethylbenzidine; Sigma-Aldrich) were added, and the plates were incubated for approximately 30 minutes in the dark. The reaction was stopped with 0.5 M H2SO4 and read at 450 nm. All conditions were tested in at least three independent experiments in duplicate or triplicate per plates. Data were normalized and fitted with standard log inhibitor vs. response models using GraphPad Prism 5 to establish median inhibitory ICso values.
A representative result using the monoclonal anti-human CD154 antibody (R&D Systems, monoclonal anti-human CD40 ligand/TNFSF5 antibody, MAB617; MW≈150 kDa used) as positive control is shown in FIG. 1.
Binding inhibition assays with this system provided consistent and well-reproducible results, as FIG. 1 (bottom), focusing on the concentration range of their activities, illustrates. […] The effect of DMSO, which was used as the diluting solvent for the non-water-soluble compounds and is a standard solvent in HTS assays, on the integrity of the assay has been examined. DMSO concentrations above 10% interfere with the binding assay, but concentrations below 3% have no effect. […] Because 5 or 10 mM stock solutions were used, all IC50 values below 250 μM can be considered as unaffected by DMSO.

[2] = biological target: P2 (ATP/UTP purine receptor); details: read-out: IC50, P2 antagonist; cited from earlier work
[3] = biological target: human TNF-R1/TNFα (Homo sapiens, UniProt P01375+P19438); experiment: Specificity test: human TNF-R1/TNFα binding inhibition assay; details: for pIC50: cell-free binding, read-out: Human TNFR1/TNFα IC50
human TNF-R1/TNFα, sequence (P01375 77-233 limits assumed): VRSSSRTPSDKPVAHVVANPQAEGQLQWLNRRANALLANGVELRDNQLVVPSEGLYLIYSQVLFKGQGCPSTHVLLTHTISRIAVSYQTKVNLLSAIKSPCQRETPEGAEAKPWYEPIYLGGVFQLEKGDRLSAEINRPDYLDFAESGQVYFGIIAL
human TNF-R1/TNFα, sequence (P19438 30-211 limits assumed): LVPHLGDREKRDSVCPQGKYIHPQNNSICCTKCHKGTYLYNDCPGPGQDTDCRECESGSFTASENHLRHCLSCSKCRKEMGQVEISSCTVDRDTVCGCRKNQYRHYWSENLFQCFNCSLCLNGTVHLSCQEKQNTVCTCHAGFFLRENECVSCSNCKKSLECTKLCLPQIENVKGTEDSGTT
Source text: A main concern for the therapeutic applicability of these compounds and of small molecule PPI inhibitors in general is related to their ability to achieve some acceptable degree of selectivity/specificity for the PPI of interest. To identify compounds that show acceptable specificity for the CD40/CD154 system, their ability to inhibit the TNF-R1/TNF-α PPI was investigated since this is particularly relevant as CD154 is part of the TNF superfamily. The experimental setup used was very similar to the one described in Example 1, but using plate-coated TNF-R1 and TNF-α as ligand (with a corresponding anti-TNF-α mAb as positive control). The concentration of TNF-R1 and TNF-α used were 0.6 μg/mL and 0.02 μg/mL, respectively.

pIC50 ([1]; cell-free binding)	IC50 ([1]; cell-free binding, read-out: Human CD40/CD154 IC50 (ug/mL) (converted)) [µM]	pIC50 [3]	Activity in the human CD40/CD154 binding assay [1]	Human CD40/CD154 IC50 ([1]; cell-free binding) [µg/mL]	Human CD40/CD154 log IC50 ([1]; log of IC50, cell-free binding)	Human TNFR1/TNFα log IC50 ([3]; log of IC50, cell-free binding)	Structure (SMILES)	pIC50 [2]
4.84	14	3.31					Cc1ccc(C(=O)Nc2ccc(S(=O)(=O)O)c3cc(S(=O)(=O)O)cc(S(=O)(=O)O)c23)cc1NC(=O)c1cccc(NC(=O)Nc2cccc(C(=O)Nc3cc(C(=O)Nc4ccc(S(=O)(=O)O)c5cc(S(=O)(=O)O)cc(S(=O)(=O)O)c45)ccc3C)c2)c1 [Suramin, reference compound]	5.00 to 5.30
< 2.70		< 2.70	inactive	>2000	>−3.0	>−3.0	O=C([O-])C1=NN(c2ccc(S(=O)(=O)[O-])cc2)C(=O)C1N=Nc1ccc(S(=O)(=O)[O-])cc1.[Na+].[Na+].[Na+] (stereo not shown) [Tartrazine (FD&C yellow 5), Tartrazine, reference compound]	
